Like-named read-outs stand apart in the source and are kept apart here. Each block holds one compound with its values, some of them ahead of it. Non-standard residues stand in square brackets, D forms with d. Residues, ends and D or L forms follow the SMILES beside them. pGlu = O=C1CC[C@@H](C(=O)O)N1
Tests used:
[1] = tested on: CR-V3-B53 antibody (raised to TRH)
[2] = tested on: EEP (R^2=Glu) antibody (580B6)
[3] = target: T1, TRH receptor-2 (TRHR-2) (Rattus norvegicus, UniProt A6IZR3); test: [3H]TRH competition binding, HEK293 cells expressing TRHR-2
T1 sequence (A6IZR3 1-352): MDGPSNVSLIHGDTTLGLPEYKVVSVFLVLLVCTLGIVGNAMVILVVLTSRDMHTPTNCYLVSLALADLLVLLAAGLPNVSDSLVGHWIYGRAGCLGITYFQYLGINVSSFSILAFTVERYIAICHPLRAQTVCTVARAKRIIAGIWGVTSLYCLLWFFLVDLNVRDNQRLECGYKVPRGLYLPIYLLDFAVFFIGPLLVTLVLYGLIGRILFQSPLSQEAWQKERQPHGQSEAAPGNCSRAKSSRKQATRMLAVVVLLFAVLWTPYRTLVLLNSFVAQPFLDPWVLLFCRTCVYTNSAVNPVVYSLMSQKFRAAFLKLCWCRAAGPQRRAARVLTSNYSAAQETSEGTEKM

[4] = target: T2, TRH receptor-1 (TRHR-1) (Mus musculus, UniProt P21761); test: [3H]TRH competition binding, HEK293 cells expressing TRHR-1
T2 sequence (P21761 1-393): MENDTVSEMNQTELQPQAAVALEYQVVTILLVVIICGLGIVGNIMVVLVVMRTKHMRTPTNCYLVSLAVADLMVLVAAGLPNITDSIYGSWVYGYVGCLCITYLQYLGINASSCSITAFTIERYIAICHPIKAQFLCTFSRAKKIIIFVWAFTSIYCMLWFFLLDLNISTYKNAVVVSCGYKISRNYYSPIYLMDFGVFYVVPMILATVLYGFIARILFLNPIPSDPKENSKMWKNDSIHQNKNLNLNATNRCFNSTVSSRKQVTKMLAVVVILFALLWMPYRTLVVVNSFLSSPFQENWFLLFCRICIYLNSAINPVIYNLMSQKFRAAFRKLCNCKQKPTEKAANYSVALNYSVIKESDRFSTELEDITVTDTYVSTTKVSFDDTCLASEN

[5] = tested on: 465B12 antibody (raised to TRH)
[6] = target: TRH receptor-2 (TRHR-2); test: competition with 2 nM [^3H]TRH on HEK293 cells expressing TRHR-2
[7] = target: TRH receptor-1 (TRHR-1); test: competition with 2 nM [^3H]TRH on HEK293 cells expressing TRHR-1
[8] = tested on: pentobarbital-anesthetized rats; assay type: in vivo, male Wistar rats; conditions: for "wet dog" shaking while still anesthetized: rat, in vivo
Experimental: Twenty minutes after loss of the righting reflex, 10 μL of either sterile saline or peptide of this invention (1 or 10 μg/10 μL sterile saline) was administered by intracisternal (IC) injection. The time from IC injection to recovery of the righting reflex, as measured three times within 10 seconds, was recorded.

[9] = tested on: control HEK293 cells; test: Intracellular calcium response (fura2), non-transfected control cells; assay type: cell-based; conditions: Ca2+-free buffer
Experimental: The ability of peptides of the formula pGlu-[…] to stimulate an intracellular calcium response in transfected HEK293 of Example 5 was evaluated, to determine whether the peptides behave as agonists. […] The coverslip was then rinsed and placed in a Sykes-Moore chamber covered with 1 mL Ca^2+ and Mg^2+ free HBSS. Imaging was performed on a Nikon inverted microscope with a DAGE CCD72 camera and […] intensifier system. Cells were alternately excited at 340 and 380 nm and emission was measured at 490 nm; 340/380 ratios were obtained every 1.2 seconds and analyzed using Image-1 software from Universal Imaging Corporation. […] Peak responses from between 33 and 120 individual cells were averaged, and responses to TRH were measured with each set of cells as a standard. Most of the peptides caused a small increase in intracellular Ca^2+ when added to control HEK293 cells bathed in Ca^2+-containing medium, but with the exception of the R^2=Leu peptide, none of them evoked an appreciable Ca^2+ response in Ca^2+-free HBSS, which was used for all experiments.

[10] = Serum T3 and T4 levels in Porsolt test animals; assay type: in vivo, rats; conditions: for effect upon T3 or T4 levels: at the dosage used; for T3 level: 0.5 mg/kg (sc)
Experimental: A Porsolt swim test with rats was used to examine the antidepressant effects of peptides where R^2=Glu or R^2=Phe, as set forth in Lloyd, R. L. et al., Pharamcology, Biochemistry and Behavior, 70:15-22 (2001), incorporated herein by reference. […] No effect of the blocking variable or interaction of the blocking variable with treatment was found.
Using the animal models of Example 11, T3 (triiodothyronine) and T4 (thyroxine) levels were tested. Serum T3 was determined by […], using fluorescence polarization of a fixed concentration of a fluorescent analog of T3 as provided in the Abbott IMX System. T4 was also determined by radioimmunoassay. With EEP, no changes in T3 were observed. […] With ELP (where R^2 is Leu) and EFP there was an increase in T3, but this was not correlated to swim scores, with ELP not producing a behavioral effect, and EFP producing a marginal behavioral effect.

[11] = tested on: Porsolt forced swim animal model of depression; test: Porsolt swim test; assay type: in vivo, rats
[12] = Binding capacity / concentration in brain areas
[13] = Brain tissue analysis of TRH and EEP after peptide injection; assay type: in vivo, rats; conditions: 0.5 mg/kg (sc)
[14] = target: T3, HEK293 cells expressing TRHR-2 (Rattus norvegicus, UniProt A6IZR3); test: Intracellular calcium response (fura2), TRHR-2 cells; assay type: cell-based
T3 sequence (A6IZR3 1-352): T1 sequence (A6IZR3 1-352)

[15] = target: T4, HEK293 cells expressing TRHR-1 (Mus musculus, UniProt P21761); test: Intracellular calcium response (fura2), TRHR-1 cells; assay type: cell-based
T4 construct: expressed in transfected cells
T4 sequence (P21761 1-393): T2 sequence (P21761 1-393)

[16] = 50 micrograms given at bedtime; reduced from 12; cited from earlier work
[17] = tracer 125I-TRH, assay standard = 1.00
[18] = low-dose (0.05 mg/kg ip), three injections
[19] = high-dose (0.5 mg/kg sc), three injections

Compound: NC(=O)CC[C@H](NC(=O)[C@@H]1CCC(=O)N1)C(=O)N1CCC[C@H]1C(N)=O [R^2 = Gln, reference compound] ([pGlu]-Gln-Pro-NH2)
relative potency for displacement of assay tracer [1]: 0.0055
relative potency for displacement of assay tracer [2]: 1.00
IC50 [3]: 21.4 µM
IC50 [4]: 27.7 µM
relative potency for displacement of assay tracer [5]: 0.0225

Compound: NC(=O)[C@@H]1CCCN1C(=O)[C@H](Cc1cnc[nH]1)NC(=O)[C@@H]1CCC(=O)N1 [TRH, pGlu-His-Pro-NH2, reference compound]
relative potency for displacement of assay tracer [1, 17]: 1.00
relative potency for displacement of assay tracer [2, 17]: 2.91
reduction in pentobarbitol-induced sleep time (analeptic effect) ([8]; IC injection of 1 μg): did not result in a significant reduction
reduction in pentobarbitol-induced sleep time (analeptic effect) ([8]; IC injection of 10 μg): had an analeptic effect
"wet dog" shaking while still anesthetized [8]: frequently accompanied by “wet dog” shaking
IC50 [3]: 0.0243 µM
IC50 [4]: 0.0235 µM
relative potency for displacement of assay tracer [5, 17]: 1.00
Ca2+ response [9]: no response

Compound: NC(=O)[C@@H]1CCCN1C(=O)[C@H](Cc1ccc(O)cc1)NC(=O)[C@@H]1CCC(=O)N1 [R^2 = Tyr, pGlu-Tyr-Pro-NH2] ([pGlu]-Tyr-Pro-NH2)
relative potency for displacement of assay tracer [1, 17]: 3.83
relative potency for displacement of assay tracer [2, 17]: 5.06
effect upon T3 or T4 levels [10]: No effect
IC50 [3]: > 257 µM
IC50 [4]: > 257 µM
relative potency for displacement of assay tracer [5, 17]: 9.85
antidepressant effect compared to saline (total immobility time) [11, 18]: effective

Compound: NC(=O)[C@@H]1CCCN1C(=O)[C@H](CCC(=O)O)NC(=O)[C@@H]1CCC(=O)N1 [R^2 = Glu, pGlu-Glu-Pro-NH2] ([pGlu]-Glu-Pro-NH2)
relative potency for displacement of assay tracer [1, 17]: 0.0092
relative potency for displacement of assay tracer [2, 17]: 1.00
T3 level ([10]; R^2=Glu experiment, no significant difference to saline): 0.66 ng/mL
T3 level ([10]; R^2=Phe experiment, significant increase vs controls (P<0.028, one-tailed)): 0.85 ng/mL
change in T3 ([10]; animals of the Porsolt test): no changes
effect upon T3 or T4 levels [10]: No effect
reduction in pentobarbitol-induced sleep time (analeptic effect) ([8]; IC injection of 10 μg): had an analeptic effect
"wet dog" shaking while still anesthetized [8]: never produced shaking
IC50 [3]: > 282 µM
IC50 [4]: > 282 µM
changes in TRH or EEP in brain regions (tissue analysis) [13]: failed to find any changes
relative potency for displacement of assay tracer [5, 17]: 0.02
mean immobility time ([11]; 0.05 mg/kg (ip)): 121 s
mean immobility time ([11]; 0.5 mg/kg (sc)): 58 s
antidepressant effect compared to saline (total immobility time) [11, 19]: effective
antidepressant effect compared to saline (total immobility time) [11, 18]: effective

Compound: N=C(N)NCCC[C@H](NC(=O)[C@@H]1CCC(=O)N1)C(=O)N1CCC[C@H]1C(N)=O [Arg, reference compound] ([pGlu]-Arg-Pro-NH2)
IC50 [3]: > 262 µM
IC50 [4]: > 262 µM

Compound: NC(=O)[C@@H]1CCCN1C(=O)[C@H](CO)NC(=O)[C@@H]1CCC(=O)N1 [Ser, reference compound] ([pGlu]-Ser-Pro-NH2)
IC50 [3]: 39.4 µM
IC50 [4]: 69.5 µM

Compound: NC(=O)[C@@H]1CCCN1C(=O)[C@H](Cc1ccccc1)NC(=O)[C@@H]1CCC(=O)N1 [R^2 = Phe, pGlu-Phe-Pro-NH2] ([pGlu]-Phe-Pro-NH2)
change in T3 ([10]; animals of the Porsolt test): increase
IC50 [3]: 3.36 µM
changes in TRH or EEP in brain regions (tissue analysis) [13]: failed to find any changes
mean immobility time ([11]; 0.5 mg/kg (sc)): 125 s
antidepressant effect compared to saline (total immobility time) [11, 19]: effective

Compound: CC(C)C[C@H](NC(=O)[C@@H]1CCC(=O)N1)C(=O)N1CCC[C@H]1C(N)=O [R^2 = Leu, pGlu-Leu-Pro-NH2] ([pGlu]-Leu-Pro-NH2)
relative potency for displacement of assay tracer [1, 17]: 0.088
relative potency for displacement of assay tracer [2, 17]: 5.00
change in T3 ([10]; animals of the Porsolt test): increase
reduction in pentobarbitol-induced sleep time (analeptic effect) ([8]; IC injection of 10 μg): had an analeptic effect
IC50 [3]: 1.95 µM
IC50 [4]: 5.47 µM
ability to block the Ca2+ response to low concentrations of TRH (antagonism) [14]: no effect was found
ability to block the Ca2+ response to low concentrations of TRH (antagonism) [15]: no effect was found
relative potency for displacement of assay tracer [5, 17]: 0.301
Ca2+ response [9]: small Ca^2+ transient
antidepressant effect compared to saline (total immobility time) ([11]; dose not stated): statistically meaningful behavioral effects were not observed

Compound: N[C@@H](Cc1cc(I)c(Oc2ccc(O)c(I)c2)c(I)c1)C(=O)O [T3, liothyronine]
required numbers of ECTs [16]: 7

Compound: CC(C)[C@H](NC(=O)[C@@H]1CCC(=O)N1)C(=O)N1CCC[C@H]1C(N)=O [R^2 = Val, pGlu-Val-Pro-NH2] ([pGlu]-Val-Pro-NH2)
relative potency for displacement of assay tracer [1, 17]: 0.087
relative potency for displacement of assay tracer [2, 17]: 9.24
effect upon T3 or T4 levels [10]: No effect
reduction in pentobarbitol-induced sleep time (analeptic effect) ([8]; IC injection of 10 μg): had an analeptic effect
IC50 [3]: > 308 µM
IC50 [4]: > 308 µM
relative potency for displacement of assay tracer [5, 17]: 0.161
antidepressant effect compared to saline (total immobility time) ([11]; dose not stated): statistically meaningful behavioral effects were not observed

Continued, in another order:

IC50 [6]: > 100 µg/mL
IC50 [7]: > 100 µg/mL
Compound: [pGlu]-Val-Pro-NH2

IC50 [6]: 7.57 µg/mL
IC50 [7]: 9.8 µg/mL
Compound: [pGlu]-Gln-Pro-NH2

binding capacity in limbic and motor areas of the brain compared to the other TRH analogs [12]: significant binding capacity
Compound: [pGlu]-Lys-Pro-NH2 [EKP]
increase in T3 ([10]; animals of the Porsolt test): 48%
increase in T4 ([10]; animals of the Porsolt test): 57%
antidepressant effect compared to saline (total immobility time) [11, 18]: effective

IC50 [6]: > 100 µg/mL
IC50 [7]: > 100 µg/mL
Compound: [pGlu]-Arg-Pro-NH2

IC50 [6]: 1.25 µg/mL
IC50 [7]: 1.58 µg/mL
Compound: [pGlu]-Phe-Pro-NH2

IC50 [6]: > 100 µg/mL
IC50 [7]: > 100 µg/mL
Compound: [pGlu]-Thr-Pro-NH2

IC50 [6]: > 100 µg/mL
IC50 [7]: > 100 µg/mL
Compound: [pGlu]-Tyr-Pro-NH2

IC50 [6]: 12.3 µg/mL
IC50 [7]: 21.7 µg/mL
Compound: [pGlu]-Ser-Pro-NH2

IC50 [6]: 0.0088 µg/mL
IC50 [7]: 0.0085 µg/mL
Compound: pGlu-His-Pro-NH2, thyrotropin releasing hormone (TRH) (peptide)

IC50 [6]: > 100 µg/mL
IC50 [7]: > 100 µg/mL
Compound: [pGlu]-Glu-Pro-NH2

IC50 [6]: 0.66 µg/mL
IC50 [7]: 1.85 µg/mL
Compound: [pGlu]-Leu-Pro-NH2

IC50 [3]: > 306 µM
IC50 [4]: > 306 µM
Compound: C[C@@H](O)[C@H](NC(=O)[C@@H]1CCC(=O)N1)C(=O)N1CCC[C@H]1C(N)=O [Thr, reference compound] ([pGlu]-Thr-Pro-NH2)

— US20050233973A1, “Tri-peptides for antidepressant applications” (priority 1997, published 2005)
